Test results published in patent US4115587A, “Fatty acid amides of norfenfluramine and compositions and methods thereof” (A. H. Robins Company, Inc., priority 1976, dated 1978).
Like-named read-outs stand apart in the source and are kept apart here.

How the values were obtained:
[1] = system: Serum Triglycerides and Cholesterol; assay: Triton-induced hyperlipidemia test (Table 1); type: in vivo, male Sprague-Dawley rats; conditions: 140 mg/kg p.o.; for % Change Cholesterol / % Change Triglycerides: vs control; for Serum Cholesterol / Serum Triglycerides: ± SD
Experimental: Fasted, male Sprague-Dawley rats weighing 250-350 g were fed ad libitum a commercial lab chow with free access to water. The animals were fasted overnight and administered Triton-WR-1339 (produced by Ruger Chemical Company, Inc., Irvington, New Jersey) as described by Schurr et al.; Lipids 7 68(1972) except the procedure was modified to use the saphenous vein and divided doses of 70 mg/kg. The rats were anesthetized with sodium pentobarbital and terminally bled by heart puncture. Serum was stored at -20° C. until it was analyzed for total cholesterol and triglycerides. Comparison was also made with clofibrate.

[2] = rats; seemed to be caused by reduced feed intake; cited from earlier work
[3] = system: Serum and Liver Lipids; assay: Dietary-induced hyperlipemia test, basal diet with cholesterol: serum and liver lipids (Table 5); type: in vivo, male Sprague-Dawley rats; conditions: .2% in food, ± S.D.; for Serum Cholesterol: p<.05 for Ex. 5; for Liver Cholesterol / Liver Lipids, Total / Serum Lipids, Total: p<.05 for all; for Serum Triglycerides: p<.05 for clofibrate
Experimental: (§1) General feeding experiments were conducted on rats to determine the effect of the amides of this invention on serum and liver lipids of animals fed a basal diet and a basal diet supplemented with cholesterol. In addition, the effect of these drugs on serum lipoproteins was studied as well as their effect on body weight, gross feed efficiency, liver weight, appetite and energy utilization with respect to their metabolic size. Male, Sprague-Dawley rats weighing 150-175 g. were housed in cages with raised wire floors in a room kept at a temperature of 24°-26° C. with a 12-hour day and 12-hour night cycle, fed ad libitum a semipurified diet consisting by weight % composition: vitamin-free casein, 20; glucose, 63; hydrogenated coconut oil, 10; GBI Vitamin Fortification Mixture, Cat. #40060 obtained from General Biochemical Company of Chargrin Falls, Ohio, 1; modified salt mix of Williams and Briggs, Cat. #170911 obtained from General Biochemical Company, 4; and cellulose, 2; and watered. The modified salt mix provided the following amounts in grams of elements per Kg. of diet:
(§2) Diets were supplemented with 0.5% cholic acid, 1% cholesterol, and drug at the expense of glucose. The experimental period was 18-21 days with body weight and food measured at specified intervals. Animals were fasted overnight and terminally bled by cardiac puncture. Blood was anti-coagulated with ethylenediamine tetracetic acid and plasma was separated by centrifugation, and stored at -20° C. Livers were excised, weighed, and stored at -20° C. All samples remained at this temperature until they were analyzed for total lipids, total cholesterol, triglycerides and phospholipids. Gross feed efficiency together with the effect of metabolic size on food intake and the effect of drug on energy utilization were determined.
(§3) Results of testing the mixed amides of Example 5 an reference compounds in rats on a basal diet with added cholesterol according to the foregoing procedure for dietary induced hyperlipemia are in Tables 4 and 5.

[4] = type: in vivo, male Sprague-Dawley rats; conditions: cholesterol diet, .2% in food; for Gross Feed Efficiency: gross weight gain/total food consumed in grams; for Body wt, Final / Liver wt per 100 g body wt. / Liver wt, Total: ± S.D.
Experimental: as §1, §2, §3

[5] = Dietary-induced hyperlipemia test, basal semi-purified diet: liver weight, body weight, food consumption (Table 2); type: in vivo, male Sprague-Dawley rats; conditions: .2% in food; for Gross Feed Efficiency: gross weight gain in grams/total food consumed in grams; for Body wt, Final / Liver wt per 100 g body wt. / Liver wt, Total: ± S.D.
Experimental: as §1, §2
(§4) Results of testing the mixed amides of Example 5 and reference compounds in rats on a basal diet according to the foregoing procedure for dietary induced hyperlipemia are in Tables 2 and 3.

[6] = system: β-Sterol Synthesis, Liver; assay: β-Sterol synthesis, acetate-1-14C incorporation, liver (Table 8); type: in vivo, male Sprague-Dawley rats; conditions: for Acetate-1-14C incorporated, Digitonide / Acetate-1-14C incorporated, Non-saponifiable: Liver, 140 mg/kg p.o., ± S.D.
Experimental: (§5) The effect of the mixed amides of Example 5 and reference compounds on β Sterol synthesis was determined by a modified procedure of Hill and Dvornik Arch. Biochem. Biophys. 114 (1966), 88. Male Sprague-Dawley rates weighing 127-175 g. were freely provided a basal semi-purified diet and water. The rats were housed in cages with raised wire floors in a room kept at a temperature of 24°-26° C. with a 12-hour day-12-hour night cycle. The cycle was reversed so the night cycle corresponded to the working day to take advantage of the circadian rhythm that favors cholesterol synthesis. The test period was five days and 20 μCi sodium acetate-1-^14 C (Sp. act. 56 mCi/m mole) administered intraperitoneally. Animals were sacrificed under carbon dioxide and the distal 10 cm of the ileum as well as the median and left liver lobes excised and homogenized. Subsequently, the β Sterols were isolated as the digitonide and the radioactivity determined in a Packard Tricarb Liquid Scintillation Spectrometer Model 3385 using 0.5% 2,5 diphenyloxazole and 8% naphthalene in a solvent mixture of 40% toluene, 40% dioxane and 20% absolute ethanol. Data for the effect of the mixed amides of Example 5 on the synthesis of nonsaponifiable substances and β Sterols as determined by the Digitonide method are shown in Table 8. […] A prior art compound, α-methylbenzyllinoleamide at 140 mg/kg, p.o. had no effect on cholesterol synthesis in either tissue.

[7] = system: Serum and Liver Lipids; assay: Dietary-induced hyperlipemia test, basal semi-purified diet: serum and liver lipids (Table 3); type: in vivo, male Sprague-Dawley rats; conditions: .2% in food, ± S.D.
Experimental: as §1, §2, §4

[8] = system: Serum Lipoproteins; assay: Serum lipoproteins of rats fed semi-purified diet supplemented with cholesterol (Table 7); type: in vivo; conditions: .2% in food
Experimental: as §1, §2
^a VLDL, very low density lipoproteins; LDL, low density lipoproteins
and HDL, high density lipoproteins as determined on a Beckman-Gilford

[9] = system: β-Sterol Synthesis, Ileum; assay: β-Sterol synthesis, acetate-1-14C incorporation, ileum (Table 8); type: in vivo, male Sprague-Dawley rats; conditions: for Acetate-1-14C incorporated, Digitonide / Acetate-1-14C incorporated, Non-saponifiable: Ileum, 140 mg/kg p.o., ± S.D.
Experimental: as §5

[10] = system: Serum and Liver Lipids; assay: Linoleamide of norfenfluramine in rats fed a hypercholesteremic diet: serum and liver lipids (Table 6); type: in vivo; conditions: 0.2% in food
Experimental: as §1, §2
(a) ± values are standard deviation of 10 animals per group.
(b) Semi-purified diet supplemented with 1% cholesterol and 0.5% cholic
acid at expense of glucose.

[11] = Neurotoxicity, tremors and lethality; type: in vivo, mice; conditions: i.p.
[12] = Motor activity, modification of the method of Cook et al.; type: in vivo, female albino mice, ICR strain; conditions: 6.5 mg/kg, i.p.
From the text: Motor activity of norfenfluramine and the amides of norfenfluramine of this invention were compared by determination of the activity in female, albino mice of the ICR strain by a modification of the method of Cook et al. in J. Pharmac. Exp. Ther. 113:11a (1955).

CCCCCCCC/C=C\CCCCCCCC(=O)NC(C)Cc1cccc(C(F)(F)F)c1 (stereo not drawn) [Ex.2, N-[1-methyl-2-(3-trifluoromethylphenyl)ethyl]octadec-9-enamide cis isomer]
% Change Cholesterol ([1]; Test Group IV): -39%
% Change Triglycerides ([1]; Test Group IV): -73%
Serum Cholesterol ([1]; Test Group IV): 173.3 ± 10.2 mg/100 ml
Serum Triglycerides ([1]; Test Group IV): 166.3 ± 37.2 mg/100 ml

CCCCC/C=C\C/C=C\CCCCCCCC(=O)NC(C)c1ccccc1 (stereo not drawn) [α-methylbenzyl linoleamide]
gain in body weight [2]: did suppress gain in body weight
Liver Triglycerides [3]: 4.35 ± 2.88 mg/g
Serum Cholesterol [3]: 197.75 ± 23.24 mg/100 ml
Liver Cholesterol [3]: 8.33 ± 1.37 mg/g
Liver Lipids, Total [3]: 84.00 ± 14.26 mg/g
Serum Lipids, Total [3]: 453.25 ± 90.58 mg/100 ml
Serum Triglycerides [3]: 262.50 ± 51.88 mg/100 ml
Food Consumed [4]: 311 g
Gross Feed Efficiency [4]: .177
Body wt, Final [4]: 192 ± 25 g
Liver wt per 100 g body wt. [4]: 3.7 ± .2 g
Liver wt, Total [4]: 7.1 ± 1.3 g
Food Consumed [5]: 331 g
Gross Feed Efficiency [5]: .210
Body wt, Final [5]: 226 ± 30 g
Liver wt per 100 g body wt. [5]: 2.9 ± .3 g
Liver wt, Total [5]: 6.7 ± .8 g
Acetate-1-14C incorporated, Digitonide [6]: 3.882 ± 2.887 n moles/g tissue
Acetate-1-14C incorporated, Non-saponifiable [6]: 4.533 ± 3.131 n moles/g tissue
effect on cholesterol synthesis ([6]; liver, 140 mg/kg, p.o.): no effect
Liver Cholesterol [7]: 3.34 ± .24 mg/g
Liver Lipids, Total [7]: 40.05 ± 11.37 mg/g
Liver Triglycerides [7]: 4.85 ± 2.71 mg/g
Serum Cholesterol [7]: 77.50 ± 3.91 mg/100 ml
Serum Lipids, Total [7]: 199.80 ± 60.9 mg/100 ml
Serum Triglycerides [7]: 72.33 ± 29.92 mg/100 ml
Albumin, Percentage Composition [8]: 15.65%
HDL, Percentage Composition [8]: 29.62%
LDL, Percentage Composition [8]: 18.51%
VLDL, Percentage Composition [8]: 36.19%
Acetate-1-14C incorporated, Digitonide [9]: 5.947 ± .654 n moles/g tissue
Acetate-1-14C incorporated, Non-saponifiable [9]: 7.648 ± 1.664 n moles/g tissue
effect on cholesterol synthesis ([9]; ileum, 140 mg/kg, p.o.): no effect

CCCCCCCC/C=C/CCCCCCCC(=O)NC(C)Cc1cccc(C(F)(F)F)c1 (stereo not drawn) [Ex.3, N-[1-methyl-2-(3-trifluoromethylphenyl)ethyl]octadec-9-enamide trans isomer]
% Change Cholesterol ([1]; Test Group IV): -25%
% Change Triglycerides ([1]; Test Group IV): -58%
Serum Cholesterol ([1]; Test Group IV): 210.0 ± 47.8 mg/100 ml
Serum Triglycerides ([1]; Test Group IV): 260.0 ± 137.8 mg/100 ml

CCCCCCCCCCCCCCCCCC(=O)NC(C)Cc1cccc(C(F)(F)F)c1 (stereo not shown) [Ex.4, N-[1-methyl-2-(3-trifluoromethylphenyl)ethyl]octadecanamide]
% Change Cholesterol ([1]; Test Group IV): -24%
% Change Triglycerides ([1]; Test Group IV): -74%
Serum Cholesterol ([1]; Test Group IV): 214.3 ± 91.6 mg/100 ml
Serum Triglycerides ([1]; Test Group IV): 160.0 ± 110.0 mg/100 ml

CCCCC/C=C\C/C=C\CCCCCCCC(=O)NC(C)Cc1cccc(C(F)(F)F)c1 (stereo not drawn) [Ex. 1, N-[1-methyl-2-(3-trifluoromethylphenyl)ethyl]octadeca-9,12-dienamide(cis-cis)]
Liver Cholesterol ([10]; SD 0.73 (10 animals), p<.05): 7.15 mg/g
Liver Triglycerides ([10]; SD 3.67 (10 animals), p<.05): 5.59 mg/g
Serum Phospholipids ([10]; SD 18.4 (10 animals)): 105.4 mg/100 ml
Serum Cholesterol ([10]; SD 30 (10 animals), p<.05): 212 mg/100 ml
Serum Triglycerides ([10]; SD 62 (10 animals), p<.05): 156 mg/100 ml
Liver Phospholipids ([10]; SD printed + 8.75 (10 animals)): 24.1 mg/g
% Change Triglycerides ([1]; Test Group I): -54%
Serum Cholesterol ([1]; Test Group I): 209.0 ± 16.4 mg/100 ml
Serum Triglycerides ([1]; Test Group I): 268.7 ± 69.6 mg/100 ml

CCOC(=O)C(C)(C)Oc1ccc(Cl)cc1 [Clofibrate, ethyl p-chlorophenoxyisobutyrate]
Liver Triglycerides [3]: 7.83 ± 2.22 mg/g
Serum Cholesterol [3]: 235.00 ± 68.27 mg/100 ml
Liver Cholesterol [3]: 14.17 ± 9.10 mg/g
Liver Lipids, Total [3]: 93.83 ± 12.06 mg/g
Serum Lipids, Total [3]: 430.33 ± 119.37 mg/100 ml
Serum Triglycerides [3]: 126.50 ± 47.21 mg/100 ml
Food Consumed [4]: 340 g
Gross Feed Efficiency [4]: .215
Body wt, Final [4]: 208 ± 16 g
Liver wt per 100 g body wt. [4]: 4.9 ± 1.2 g
Liver wt, Total [4]: 10.4 ± 2.6 g
% Change Cholesterol ([1]; Test Group I): -24.0%
% Change Triglycerides ([1]; Test Group I): -79%
Serum Cholesterol ([1]; Test Group I): 173.0 ± 54.0 mg/100 ml
Serum Triglycerides ([1]; Test Group I): 124.5 ± 7.8 mg/100 ml
% Change Cholesterol ([1]; Test Group II): -24%
Serum Cholesterol ([1]; Test Group II): 94.1 ± 13.6 mg/100 ml
% Change Triglycerides ([1]; Test Group III): -20%
Serum Cholesterol ([1]; Test Group III): 109.3 ± 24.4 mg/100 ml
Serum Triglycerides ([1]; Test Group III): 132.7 ± 64.5 mg/100 ml
% Change Cholesterol ([1]; Test Group IV): -24%
% Change Triglycerides ([1]; Test Group IV): -34%
Serum Cholesterol ([1]; Test Group IV): 213.0 ± 14.1 mg/100 ml
Serum Triglycerides ([1]; Test Group IV): 411.7 ± 118.0 mg/100 ml
Food Consumed [5]: 306 g
Gross Feed Efficiency [5]: .180
Body wt, Final [5]: 210 ± 21 g
Liver wt per 100 g body wt. [5]: 4.4 ± .4 g
Liver wt, Total [5]: 9.2 ± .4 g
Acetate-1-14C incorporated, Digitonide [6]: 1.588 ± 1.216 n moles/g tissue
Acetate-1-14C incorporated, Non-saponifiable [6]: 2.943 ± 1.707 n moles/g tissue
Liver Cholesterol [7]: 2.63 ± .09 mg/g
Liver Lipids, Total [7]: 51.21 ± 7.89 mg/g
Liver Triglycerides [7]: 1.78 ± .43 mg/g
Serum Cholesterol [7]: 89.83 ± 8.77 mg/100 ml
Serum Lipids, Total [7]: 143.70 ± 22.42 mg/100 ml
Serum Triglycerides [7]: 31.83 ± 7.08 mg/100 ml
Albumin, Percentage Composition [8]: 22.63%
HDL, Percentage Composition [8]: 9.03%
LDL, Percentage Composition [8]: 42.56%
VLDL, Percentage Composition [8]: 25.76%
Acetate-1-14C incorporated, Digitonide [9]: 6.098 ± .909 n moles/g tissue
Acetate-1-14C incorporated, Non-saponifiable [9]: 6.774 ± 1.447 n moles/g tissue

CC(N)Cc1cccc(C(F)(F)F)c1 (stereo not shown) [norfenfluramine]
tremors ([11]; 40 mg/kg): tremors were observed
lethality ([11]; 100 mg/kg): lethality
effect on motor activity [12]: strong effect
